Measurements published in the supplement of paper PMC10307832.

Legend:
Assay in all cases: relative viability (nuclei count vs DMSO), 5 days (fraction); higher = more cells survive
Tipifarnib + Pictilisib = compound: Cn1cncc1[C@@](N)(c1ccc(Cl)cc1)c1ccc2c(c1)c(-c1cccc(Cl)c1)cc(=O)n2C [Tipifarnib] + CS(=O)(=O)N1CCN(Cc2cc3nc(-c4cccc5[nH]ncc45)nc(N4CCOCC4)c3s2)CC1 [Pictilisib] (partner 1 µM)
Method in brief: (§1)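 The day after seeding in 1536-well plates, lung cancer cell lines were treated by pin tool with a single drug, or with a fixed anchor-drug dose together with five library-drug doses (not always all listed) in √10 steps. After 5 days, a combined fix-and-stain solution (final 0.05% Triton X-100, 1% formaldehyde, 1 ug/ml Hoechst) was added. Nuclei counted on 4× images gave relative viability as treated counts over vehicle counts, reported as the median of duplicate plates.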

Tipifarnib + Bortezomib = compound: Cn1cncc1[C@@](N)(c1ccc(Cl)cc1)c1ccc2c(c1)c(-c1cccc(Cl)c1)cc(=O)n2C [Tipifarnib] + CC(C)C[C@H](NC(=O)[C@H](Cc1ccccc1)NC(=O)c1cnccn1)B(O)O [Bortezomib] (partner 0.002 µM)
Method in brief: as §1

Tipifarnib + Palbociclib = compound: Cn1cncc1[C@@](N)(c1ccc(Cl)cc1)c1ccc2c(c1)c(-c1cccc(Cl)c1)cc(=O)n2C [Tipifarnib] + CC(=O)c1c(C)c2cnc(Nc3ccc(N4CCNCC4)cn3)nc2n(C2CCCC2)c1=O [Palbociclib] (partner 0.5 µM)
Method in brief: as §1

Tipifarnib + Foretinib = compound: Cn1cncc1[C@@](N)(c1ccc(Cl)cc1)c1ccc2c(c1)c(-c1cccc(Cl)c1)cc(=O)n2C [Tipifarnib] + COc1cc2c(Oc3ccc(NC(=O)C4(C(=O)Nc5ccc(F)cc5)CC4)cc3F)ccnc2cc1OCCCN1CCOCC1 [Foretinib] (partner 0.25 µM)
Method in brief: as §1

Row | Cell Line | relative viability (Tipifarnib + Pictilisib; first compound 0.01 µM) | relative viability (Tipifarnib + Pictilisib; first compound 0.03162 µM) | relative viability (Tipifarnib + Pictilisib; first compound 0.1 µM) | relative viability (Tipifarnib + Pictilisib; first compound 0.3162 µM) | relative viability (Tipifarnib + Pictilisib; first compound 1 µM) | relative viability (Tipifarnib + Bortezomib; first compound 0.01 µM) | relative viability (Tipifarnib + Bortezomib; first compound 0.03162 µM) | relative viability (Tipifarnib + Bortezomib; first compound 0.1 µM) | relative viability (Tipifarnib + Bortezomib; first compound 0.3162 µM) | relative viability (Tipifarnib + Bortezomib; first compound 1 µM) | relative viability (Tipifarnib + Palbociclib; first compound 0.01 µM) | relative viability (Tipifarnib + Palbociclib; first compound 0.03162 µM) | relative viability (Tipifarnib + Palbociclib; first compound 0.1 µM) | relative viability (Tipifarnib + Palbociclib; first compound 0.3162 µM) | relative viability (Tipifarnib + Palbociclib; first compound 1 µM) | relative viability (Tipifarnib + Foretinib; first compound 0.01 µM) | relative viability (Tipifarnib + Foretinib; first compound 0.03162 µM) | relative viability (Tipifarnib + Foretinib; first compound 0.1 µM) | relative viability (Tipifarnib + Foretinib; first compound 0.3162 µM) | relative viability (Tipifarnib + Foretinib; first compound 1 µM)
1 | HCC-366 | 0.145 | 0.133 | 0.0968 | 0.0769 | 0.0755 | 1.09 | 0.887 | 0.483 | 0.315 | 0.07 | 0.259 | 0.346 | 0.199 | 0.179 | 0.101 | 1.04 | 0.995 | 0.586 | 0.631 | 0.121
2 | HCC-827 | 0.955 | 0.905 | 0.775 | 0.653 | 0.675 | 0.975 | 0.955 | 0.858 | 0.68 | 0.68 | 0.455 | 0.495 | 0.472 | 0.349 | 0.439 | 1.06 | 1.05 | 0.741 | 0.63 | 0.568
3 | HOP-62 | 0.506 | 0.158 | 0.24 | 0.3 | 0.26 | 1 | 0.188 | 0.222 | 0.275 | 0.281 | 0.425 | 0.33 | 0.268 | 0.188 | 0.191 | 0.809 | 0.671 | 0.464 | 0.305 | 0.542
4 | IA-LM | 0.133 | 0.121 | 0.136 | 0.114 | 0.114 | 0.354 | 0.407 | 0.28 | 0.292 | 0.265 | – | – | – | – | – | 0.905 | 0.55 | 0.47 | 0.299 | 0.33
5 | LC-2-ad | 0.515 | 0.371 | 0.255 | 0.325 | 0.191 | 0.984 | 0.486 | 0.491 | 0.443 | 0.185 | 0.464 | 0.439 | 0.442 | 0.336 | 0.38 | 0.968 | 0.896 | 0.807 | 0.609 | 0.657
6 | LCLC-97TM1 | 0.179 | 0.147 | 0.12 | 0.193 | 0.108 | 0.317 | 0.582 | 0.404 | 0.33 | 0.117 | 0.222 | 0.154 | 0.202 | 0.202 | 0.236 | 1.03 | 0.852 | 0.898 | 0.802 | 0.685
7 | LK-2 | 0.615 | 0.5 | 0.541 | 0.305 | 0.485 | – | – | – | – | – | 0.586 | 0.543 | 0.481 | 0.474 | 0.42 | 1.15 | 1.02 | 1.03 | 0.578 | 0.726
8 | NCI-H358 | 0.387 | 0.367 | 0.362 | 0.347 | 0.268 | – | – | – | – | – | 0.152 | 0.127 | 0.118 | 0.129 | 0.144 | 0.884 | 0.761 | 0.563 | 0.433 | 0.296
9 | NCI-H522 | – | – | – | – | – | – | – | – | – | – | 0.9 | 1.2 | 1.07 | 0.898 | 0.923 | – | – | – | – | –
10 | NCI-H596 | 0.392 | 0.365 | 0.354 | 0.373 | 0.312 | 1.05 | 1.12 | 1.17 | 0.913 | 0.699 | – | – | – | – | – | 1.05 | 0.857 | 0.619 | 0.569 | 0.53
11 | NCI-H1395 | 0.578 | 0.547 | 0.538 | 0.47 | 0.521 | – | – | – | – | – | 0.646 | 0.617 | 0.591 | 0.503 | 0.5 | 0.986 | 0.956 | 0.814 | 0.705 | 0.77
12 | NCI-H1563 | 0.669 | 0.64 | 0.655 | 0.628 | 0.589 | 0.996 | 0.881 | 0.87 | 0.871 | 0.748 | – | – | – | – | – | 1.03 | 1.04 | 0.879 | 0.82 | 0.87
13 | NCI-H1648 | – | – | – | – | – | – | – | – | – | – | 0.253 | 0.304 | 0.279 | 0.285 | 0.45 | – | – | – | – | –
14 | NCI-H1703 | 0.239 | 0.234 | 0.201 | 0.21 | 0.214 | 0.296 | 0.262 | 0.304 | 0.195 | 0.186 | – | – | – | – | – | 0.343 | 0.247 | 0.325 | 0.267 | 0.294
15 | NCI-H1792 | 0.237 | 0.235 | 0.152 | 0.117 | 0.131 | 0.967 | 0.877 | 0.661 | 0.621 | 0.432 | 0.642 | 0.621 | 0.522 | 0.512 | 0.479 | – | – | – | – | –
16 | NCI-H1793 | 0.446 | 0.256 | 0.307 | 0.247 | 0.265 | – | – | – | – | – | 0.29 | 0.258 | 0.228 | 0.213 | 0.233 | 0.626 | 0.577 | 0.616 | 0.44 | 0.411
17 | NCI-H1944 | 0.38 | 0.313 | 0.348 | 0.295 | 0.279 | – | – | – | – | – | 0.324 | 0.31 | 0.288 | 0.28 | 0.273 | 0.842 | 0.803 | 0.561 | 0.472 | 0.459
18 | NCI-H2170 | 0.317 | 0.291 | 0.295 | 0.278 | 0.222 | – | – | – | – | – | 0.362 | 0.377 | 0.305 | 0.246 | 0.27 | 1.03 | 1.06 | 1.01 | 0.99 | 0.896
19 | NCI-H2342 | – | – | – | – | – | – | – | – | – | – | 0.535 | 0.493 | 0.555 | 0.499 | 0.488 | 1.06 | 0.984 | 0.884 | 0.824 | 0.771
20 | SK-MES-1 | 0.349 | 0.401 | 0.395 | 0.247 | 0.239 | – | – | – | – | – | 0.337 | 0.3 | 0.304 | 0.245 | 0.3 | 0.916 | 0.869 | 0.905 | 0.681 | 0.542
21 | SW 900 | – | – | – | – | – | – | – | – | – | – | 0.454 | 0.415 | 0.347 | 0.332 | 0.354 | 0.716 | 0.481 | 0.381 | 0.39 | 0.412
